Source: the supplement of paper PMC11208160

Experiment: recombinant UMI read abundance after kanamycin selection (control-corrected) (log10(CPM+1)); higher = more efficient recombination; extreme values may be limits of the assay; sequences stand for … in AGTGCAGAGAAAATCGGCCAGTTTTCTCTGCCTGCAGTCCGCATGCCGTGGGACCCCTTGGGTTCTAACCTGTTGCCTAGATTTATGCAGCGGACTGCCTTTCTCCCAAAGTGATAAACCGG…AGGTTGGTTTCACT; site = the 11-nt donor
Protocol: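 Pooled E. coli donor-specificity screen for the IS621 bridge recombinase. Each library member carries a reprogrammed 11-nt donor and a full-length LE bridge RNA expressed in cis from the natural promoter, with a paired donor-binding loop (8-nt LDG + 4-nt RDG) and a target-binding loop fixed to T5. It is co-electroporated with a T5 target plasmid; recombinase is induced with 0.07 mM IPTG and recombinants are selected on kanamycin. UMIs are counted as CPM, averaged over two biological replicates and corrected by the unselected control. Molecule = full bridge RNA written as DNA, built from the T5 scaffold: LDG = donor specificity nt 1-8, RDG = reverse complement of nt 8-11.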
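Further: IS621 bridge recombinase in Escherichia coli cells against a fixed T5 target plasmid.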

| Sequence | recombinant UMI read abundance (log10) |
| --- | --- |
| GAATGGCCATGGACCGGTTTTCCCGGTAATCCGTATTTGCC (site GAATGGCCTGG) | 0 |
| CTGGAAACATGGACCGGTTTTCCCGGTAATCCGTATTTGCA (site TTGGAAACTTG) | 0 |
| CTGTAGGCATGGACCGGTTTTCCCGGTAATCCGTATTTGGC (site ATGTAGGCTGC) | 0.626 |
| CCCCTATCATGGACCGGTTTTCCCGGTAATCCGTATTTGTC (site CCCATATCTGA) | 0 |
| GGTCCTACATGGACCGGTTTTCCCGGTAATCCGTATTTGTA (site GGTCCAACTTA) | 0.00723 |
| CTGGAAACATGGACCGGTTTTCCCGGTAATCCGTATTTGCG (site CTGGAAACTCG) | 2.37 |
| CTTGAAACATGGACCGGTTTTCCCGGTAATCCGTATTTGCA (site CTAGAAACTTG) | 1.31 |
| GTTGTTCCATGGACCGGTTTTCCCGGTAATCCGTATTTGTT (site GTTGTTCCTAC) | 0 |
| GGCCTTTCATGGACCGGTTTTCCCGGTAATCCGTATTTGTC (site GGCCTTTCTGA) | 1.46 |
| GTAAACCCATGGACCGGTTTTCCCGGTAATCCGTATTTGAT (site GTAAACCCTAT) | 1.45 |
| GAATGAGCATGGACCGGTTTTCCCGGTAATCCGTATTTGGG (site CAATGAGCTCC) | 0.0211 |
| CCAACGGCATGGACCGGTTTTCCCGGTAATCCGTATTTGCG (site CCAACGGCTCG) | 1.52 |
| CGCCTTACATGGACCGGTTTTCCCGGTAATCCGTATTTGCT (site CGCCGTACTAG) | 0 |
| CGGAATTCATGGACCGGTTTTCCCGGTAATCCGTATTTGTT (site CGGAATACTAA) | 0.00592 |
| CCCACGCCATGGACCGGTTTTCCCGGTAATCCGTATTTGTA (site TCCACGCCTTA) | 0.0141 |
| CACTCGTCATGGACCGGTTTTCCCGGTAATCCGTATTTGCC (site CACTCCTCTGG) | 0 |
| CTACTAACATGGACCGGTTTTCCCGGTAATCCGTATTTGGC (site CTACTAACTGC) | 2.51 |
| TCAGAGACATGGACCGGTTTTCCCGGTAATCCGTATTTGAG (site TCAGAGACTCG) | 0.938 |
| GTAGCAACATGGACCGGTTTTCCCGGTAATCCGTATTTGTA (site GTAGCAACTTA) | 2.18 |

| Sequence | recombinant UMI read abundance (log10) |
| --- | --- |
| ATGACTCCATGGACCGGTTTTCCCGGTAATCCGTATTTGGA (site ATGACTCCTTC) | 0.437 |
| TATCTTCCATGGACCGGTTTTCCCGGTAATCCGTATTTGGT (site TATCTTCCTAC) | 0.00632 |
| CGTCCAGCATGGACCGGTTTTCCCGGTAATCCGTATTTGCT (site CGTCCAGCTAG) | 0.438 |
| CAAGTCACATGGACCGGTTTTCCCGGTAATCCGTATTTGGT (site CAAGTCACTGC) | 2.43 |
| CGGGCGTCATGGACCGGTTTTCCCGGTAATCCGTATTTGCC (site CGGGGGTCTGG) | 0 |
| AGCTCAGCATGGACCGGTTTTCCCGGTAATCCGTATTTGGC (site AGCTCAGCTAC) | 0.396 |
| AGGAACACATGGACCGGTTTTCCCGGTAATCCGTATTTGCA (site AGGAACACTTG) | 2.52 |
| CTAGCTTCATGGACCGGTTTTCCCGGTAATCCGTATTTGAC (site CTAGCTTCTGT) | 2.18 |
| CCGAATTCATGGACCGGTTTTCCCGGTAATCCGTATTTGGG (site CCGAATTCTCC) | 0 |
| CTGCTACCATGGACCGGTTTTCCCGGTAATCCGTATTTGCA (site CTGCTACCTGG) | 0 |
| GGTCGAGCATGGACCGGTTTTCCCGGTAATCCGTATTTGCA (site GCTCGAGCTTG) | 0.0115 |
| GCATCAGCATGGACCGGTTTTCCCGGTAATCCGTATTTGTG (site GCATCAGCTCA) | 1.49 |
| TCAGAGACATGGACCGGTTTTCCCGGTAATCCGTATTTGCG (site TCAGAGGCTCG) | 1.98 |
| GAGTAATCATGGACCGGTTTTCCCGGTAATCCGTATTTGGG (site GAGTAATCTCC) | 1.57 |
| AGCTCAGCATGGACCGGTTTTCCCGGTAATCCGTATTTGGG (site AGCTCAGCTCC) | 0.0108 |
| CCTAGTACATGGACCGGTTTTCCCGGTAATCCGTATTTGGC (site CCTACTACTGC) | 0 |
| CTAGTATCATGGACCGGTTTTCCCGGTAATCCGTATTTGAC (site ATAGTATCTTT) | 0.00657 |
| GGCAATCCATGGACCGGTTTTCCCGGTAATCCGTATTTGTA (site GGCAATCCTTG) | 0 |
| TTGCTAGCATGGACCGGTTTTCCCGGTAATCCGTATTTGAA (site TGGCTAGCTTT) | 0.0255 |

| Sequence | recombinant UMI read abundance (log10) |
| --- | --- |
| GTAGAGGCATGGACCGGTTTTCCCGGTAATCCGTATTTGTG (site GTTGAGGCTCA) | 0.247 |
| CCCGCTCCATGGACCGGTTTTCCCGGTAATCCGTATTTGCA (site CCCGGTCCTTG) | 0 |
| CAATGCCCATGGACCGGTTTTCCCGGTAATCCGTATTTGCT (site CAATTCCCTAG) | 0 |
| CTAGTATCATGGACCGGTTTTCCCGGTAATCCGTATTTGAC (site CTAGAATCTCT) | 0 |
| CAAGCGTCATGGACCGGTTTTCCCGGTAATCCGTATTTGTG (site CAAGCGGCTCA) | 0.00505 |
| CGGACATCATGGACCGGTTTTCCCGGTAATCCGTATTTGCG (site CGGACATCTAG) | 0 |
| AGACTTGCATGGACCGGTTTTCCCGGTAATCCGTATTTGTA (site AGACTTGCTTA) | 0.887 |
| GATGACTCATGGACCGGTTTTCCCGGTAATCCGTATTTGGT (site GATGACTCTAC) | 2.49 |
| CCAGGTGCATGGACCGGTTTTCCCGGTAATCCGTATTTGGT (site CCAGGTGCTAT) | 0.541 |
| ATCATGCCATGGACCGGTTTTCCCGGTAATCCGTATTTGCC (site ATCATGCCTGG) | 0 |
| GCCCACCCATGGACCGGTTTTCCCGGTAATCCGTATTTGAA (site GCCCACCCTTT) | 0.362 |
| GTATGCACATGGACCGGTTTTCCCGGTAATCCGTATTTGTT (site GTATGCACTCA) | 0.25 |
| TAGCCATCATGGACCGGTTTTCCCGGTAATCCGTATTTGGT (site TAGCCTTCTAC) | 0.0124 |
| TGATACTCATGGACCGGTTTTCCCGGTAATCCGTATTTGCA (site TAATACTCTTG) | 2.38 |
| CAATTCCCATGGACCGGTTTTCCCGGTAATCCGTATTTGCT (site CAATGCCCTAG) | 0 |
| TGTTCGCCATGGACCGGTTTTCCCGGTAATCCGTATTTGTA (site TGTTCTCCTTA) | 0 |
| ATCCAAGCATGGACCGGTTTTCCCGGTAATCCGTATTTGAG (site ATCTAAGCTCT) | 0.231 |
| CTGGAAACATGGACCGGTTTTCCCGGTAATCCGTATTTGAA (site CTGGAAACTTA) | 0.0938 |
| TTAGAGACATGGACCGGTTTTCCCGGTAATCCGTATTTGCG (site TTAGAGACTCG) | 2.16 |
